From ChEMBL document CHEMBL4321794, “Discovery and Optimization of 2-Arylquinazolin-4-ones into a Potent and Selective Tankyrase Inhibitor Modulating Wnt Pathway Activity” (J Med Chem, 2019) come the findings set out here.

The subject of series [1] is Mus musculus. Description: Ex vivo inhibition of tankyrase 1/2 in human DLD1 cells xenografted in immunodeficient athymic nude mouse assessed as increase in tankyrase level in tumor lysates at 10 mg/kg, po administered via gavage by luminex based bead assay. Type of series: functional, organism-based. To be noted: Neoplasm, Lysate, TDE = time-dependent effect. Background: Xenograft models place foreign cells or tissue in a host animal.

Series [2] is described as follows: Clearance in mouse. Type of series: ADME, organism-based. As to conditions: in vivo.
The nature of series [3]: Time at which free-drug concentration exceeds in vitro cellular EC50 for inhibition of tankyrase 1/2 in human DLD1 cells assessed as increase in axin2 accumulation in mouse xenografted with human DLD1 at 90 mg/kg, po administered via gavage. The class given is organism-based. As to conditions: in vivo.
Series [4] in a line: Thermodynamic solubility in phosphate buffer at pH 7.4 at 2 mg incubated under shaking condition for 6 hrs followed by rechecking and readjusting pH to 7.4 and further incubated for 18 hrs by HPLC/UV detection method. To be noted: read-out: Therm_solubility. The class given is physicochemical.
Series [5] has as its target T1, Protein mono-ADP-ribosyltransferase TIPARP (Homo sapiens, UniProt Q7Z3E1).
T1 sequence (Q7Z3E1 whole entry): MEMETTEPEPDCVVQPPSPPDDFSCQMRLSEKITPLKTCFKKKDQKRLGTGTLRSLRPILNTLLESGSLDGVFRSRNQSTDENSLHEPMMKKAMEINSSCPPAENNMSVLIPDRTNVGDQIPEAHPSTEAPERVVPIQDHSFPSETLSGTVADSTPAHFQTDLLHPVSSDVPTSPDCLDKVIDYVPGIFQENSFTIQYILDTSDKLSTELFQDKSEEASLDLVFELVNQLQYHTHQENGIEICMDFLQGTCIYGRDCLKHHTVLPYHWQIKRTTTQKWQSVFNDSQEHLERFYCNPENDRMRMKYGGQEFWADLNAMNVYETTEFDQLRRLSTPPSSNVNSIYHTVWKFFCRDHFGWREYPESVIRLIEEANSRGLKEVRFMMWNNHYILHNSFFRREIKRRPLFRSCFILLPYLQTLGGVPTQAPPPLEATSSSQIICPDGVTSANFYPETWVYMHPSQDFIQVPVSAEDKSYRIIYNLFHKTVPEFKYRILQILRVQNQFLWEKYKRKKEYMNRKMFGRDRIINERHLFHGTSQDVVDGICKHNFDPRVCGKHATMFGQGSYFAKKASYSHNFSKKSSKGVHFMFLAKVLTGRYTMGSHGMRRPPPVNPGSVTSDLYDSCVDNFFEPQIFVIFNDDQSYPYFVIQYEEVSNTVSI
Description: Inhibition of N-terminal FLAG-tagged recombinant human PARP7 (400 to 657 residues) expressed in Baculovirus infected Sf9 cells using biotinylated substrate after 1 hr by chemiluminescence method.

Series [6] has as its target Poly [ADP-ribose] polymerase 1 (Homo sapiens, UniProt P09874). The experiment in a line: Inhibition of N-terminal GST-tagged recombinant full length human PARP1 expressed in Baculovirus infected Sf9 cells using biotinylated substrate after 1 hr by chemiluminescence method.
Series [7] deals with Mus musculus. The experiment in a line: Ex vivo inhibition of tankyrase 1/2 in human DLD1 cells xenografted in immunodeficient athymic nude mouse assessed as increase in axin-2 level in tumor lysates at 10 mg/kg, po administered via gavage measured after 12 hrs by luminex based bead assay. As to conditions: Neoplasm, Lysate. Type of series: functional, organism-based.
Series [8] in a line: Intrinsic clearance in human hepatocytes assessed per million cells. To be noted: read-out: CLH. The class given is ADME, cell-based, Hepatocyte.
Series [9] has as its target Protein mono-ADP-ribosyltransferase PARP6 (Homo sapiens, UniProt Q2NL67). The experiment in a line: Inhibition of N-terminal GST-tagged recombinant human full length PARP6 expressed in Baculovirus infected Sf9 cells using biotinylated substrate after 1 hr by chemiluminescence method.
Series [10] can be described thus: Protein binding in mouse plasma assessed as unbound fraction at 30 mg/kg, po. Type of series: ADME, organism-based.
Series [11] is described as follows: Half-life in mouse. Type of series: ADME, organism-based. To be noted: in vivo.
Series [12] has as its target T2, Protein mono-ADP-ribosyltransferase PARP10 (Homo sapiens, UniProt Q53GL7).
T2 sequence (Q53GL7 whole entry): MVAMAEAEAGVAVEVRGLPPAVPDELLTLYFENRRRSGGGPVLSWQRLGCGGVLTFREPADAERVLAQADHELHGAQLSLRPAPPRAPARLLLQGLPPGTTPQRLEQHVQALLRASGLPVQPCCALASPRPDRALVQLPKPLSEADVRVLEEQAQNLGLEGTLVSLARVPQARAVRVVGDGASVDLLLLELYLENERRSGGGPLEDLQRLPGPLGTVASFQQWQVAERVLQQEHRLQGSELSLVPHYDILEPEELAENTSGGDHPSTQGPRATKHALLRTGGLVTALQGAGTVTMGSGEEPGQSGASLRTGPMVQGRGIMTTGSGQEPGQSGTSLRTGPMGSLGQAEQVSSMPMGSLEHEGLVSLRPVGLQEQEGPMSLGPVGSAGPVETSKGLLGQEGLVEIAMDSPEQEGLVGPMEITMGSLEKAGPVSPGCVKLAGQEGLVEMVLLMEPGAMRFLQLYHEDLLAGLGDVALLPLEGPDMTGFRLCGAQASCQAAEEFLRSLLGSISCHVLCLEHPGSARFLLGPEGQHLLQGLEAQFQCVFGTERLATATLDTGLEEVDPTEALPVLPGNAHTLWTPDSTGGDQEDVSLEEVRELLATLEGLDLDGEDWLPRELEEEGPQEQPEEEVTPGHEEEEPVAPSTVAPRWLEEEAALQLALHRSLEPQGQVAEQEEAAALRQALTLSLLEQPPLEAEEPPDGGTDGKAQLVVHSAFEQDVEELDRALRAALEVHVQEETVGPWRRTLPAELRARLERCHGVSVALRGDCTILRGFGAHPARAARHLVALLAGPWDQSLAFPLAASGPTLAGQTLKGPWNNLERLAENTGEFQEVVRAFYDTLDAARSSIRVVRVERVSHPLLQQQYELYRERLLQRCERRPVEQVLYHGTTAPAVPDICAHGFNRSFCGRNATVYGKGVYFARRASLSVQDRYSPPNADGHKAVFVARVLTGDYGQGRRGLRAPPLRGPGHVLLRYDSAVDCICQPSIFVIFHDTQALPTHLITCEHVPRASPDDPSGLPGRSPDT
The experiment in a line: Inhibition of human N-terminal FLAG-tagged/C-terminal Strep-tagged PARP10 (805 to 1025 residues) expressed in baculovirus infected Sf9 insect cells using biotinylated substrate by chemiluminescence method.

Series [13] is described as follows: Intrinsic clearance in human liver microsomes assessed per mg protein in presence of NADPH by UPLC analysis. Type of series: ADME, Microsome. As to conditions: read-out: CLH.
Series [14] has as its system Mus musculus. The experiment in a line: Ex vivo inhibition of tankyrase 1/2 in human DLD1 cells xenografted in immunodeficient athymic nude mouse assessed as increase in axin-2 level in tumor lysates at 10 to 90 mg/kg, po administered via gavage by luminex based bead assay. The class given is functional, organism-based. As to conditions: Neoplasm, Lysate, TDE = time-dependent effect.

The target in series [15] is Poly [ADP-ribose] polymerase 2 (Homo sapiens, UniProt Q9UGN5). Description: Inhibition of N-terminal GST-tagged recombinant human PARP2 (2 to 583 residues) expressed in Baculovirus infected Sf9 cells using biotinylated substrate after 1 hr by chemiluminescence method.
Sequence of Poly [ADP-ribose] polymerase 2 (Q9UGN5 whole entry, the tested form may be a part): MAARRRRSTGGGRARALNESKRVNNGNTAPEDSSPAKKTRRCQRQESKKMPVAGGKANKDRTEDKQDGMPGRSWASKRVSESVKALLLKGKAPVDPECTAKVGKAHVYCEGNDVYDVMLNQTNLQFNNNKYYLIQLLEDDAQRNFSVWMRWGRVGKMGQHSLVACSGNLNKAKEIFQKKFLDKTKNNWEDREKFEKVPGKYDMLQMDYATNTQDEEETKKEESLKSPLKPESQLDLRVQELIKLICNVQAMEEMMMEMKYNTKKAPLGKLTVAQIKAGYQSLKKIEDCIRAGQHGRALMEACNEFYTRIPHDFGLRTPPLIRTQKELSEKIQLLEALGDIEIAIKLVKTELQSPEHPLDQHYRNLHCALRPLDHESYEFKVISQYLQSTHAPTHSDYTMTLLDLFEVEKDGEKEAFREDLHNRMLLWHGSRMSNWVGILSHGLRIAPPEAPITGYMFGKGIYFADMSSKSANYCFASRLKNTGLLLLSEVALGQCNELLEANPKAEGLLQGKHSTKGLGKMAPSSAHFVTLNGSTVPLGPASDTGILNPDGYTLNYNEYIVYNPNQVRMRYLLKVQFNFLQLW
Series [16] can be described thus: Apparent permeability across apical to basolateral side in human Caco2 cells at 1 uM after 2 hrs by LC-MS/MS analysis. To be noted: Caco-2. Type of series: ADME, cell-based. (In general: Caco-2 monolayers are a common model of the intestinal barrier.)

Values after ≈ are worked out from the molar mass of the structure shown. Active and inactive are the calls of the source. No cut-off for these calls is given here.

Sequence of Poly [ADP-ribose] polymerase 1 (P09874 whole entry): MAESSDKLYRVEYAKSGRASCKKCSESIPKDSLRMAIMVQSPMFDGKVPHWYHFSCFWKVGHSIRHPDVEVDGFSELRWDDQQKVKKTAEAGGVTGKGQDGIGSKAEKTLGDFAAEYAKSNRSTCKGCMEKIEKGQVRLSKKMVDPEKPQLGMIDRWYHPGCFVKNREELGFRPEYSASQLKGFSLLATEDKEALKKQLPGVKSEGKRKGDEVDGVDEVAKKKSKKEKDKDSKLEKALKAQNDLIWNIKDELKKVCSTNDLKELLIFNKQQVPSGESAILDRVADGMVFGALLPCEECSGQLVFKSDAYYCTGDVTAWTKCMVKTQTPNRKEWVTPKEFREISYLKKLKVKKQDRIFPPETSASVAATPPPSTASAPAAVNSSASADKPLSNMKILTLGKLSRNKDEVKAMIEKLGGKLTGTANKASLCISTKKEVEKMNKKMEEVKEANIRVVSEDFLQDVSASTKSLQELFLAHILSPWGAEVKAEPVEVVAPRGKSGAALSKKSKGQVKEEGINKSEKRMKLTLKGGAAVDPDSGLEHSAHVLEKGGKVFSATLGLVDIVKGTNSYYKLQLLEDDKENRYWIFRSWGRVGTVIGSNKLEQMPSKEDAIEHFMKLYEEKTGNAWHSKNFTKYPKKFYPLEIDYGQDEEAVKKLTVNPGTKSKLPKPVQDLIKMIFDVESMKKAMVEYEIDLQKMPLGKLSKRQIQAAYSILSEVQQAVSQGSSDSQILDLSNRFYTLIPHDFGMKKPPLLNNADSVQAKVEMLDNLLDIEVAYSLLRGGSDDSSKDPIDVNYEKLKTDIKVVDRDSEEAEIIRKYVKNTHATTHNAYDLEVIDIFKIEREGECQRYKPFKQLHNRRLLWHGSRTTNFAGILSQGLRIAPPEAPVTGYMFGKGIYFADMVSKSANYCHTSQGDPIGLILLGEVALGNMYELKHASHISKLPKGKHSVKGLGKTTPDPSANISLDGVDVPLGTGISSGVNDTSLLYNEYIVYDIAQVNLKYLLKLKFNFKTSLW
Sequence of Protein mono-ADP-ribosyltransferase PARP6 (Q2NL67 whole entry): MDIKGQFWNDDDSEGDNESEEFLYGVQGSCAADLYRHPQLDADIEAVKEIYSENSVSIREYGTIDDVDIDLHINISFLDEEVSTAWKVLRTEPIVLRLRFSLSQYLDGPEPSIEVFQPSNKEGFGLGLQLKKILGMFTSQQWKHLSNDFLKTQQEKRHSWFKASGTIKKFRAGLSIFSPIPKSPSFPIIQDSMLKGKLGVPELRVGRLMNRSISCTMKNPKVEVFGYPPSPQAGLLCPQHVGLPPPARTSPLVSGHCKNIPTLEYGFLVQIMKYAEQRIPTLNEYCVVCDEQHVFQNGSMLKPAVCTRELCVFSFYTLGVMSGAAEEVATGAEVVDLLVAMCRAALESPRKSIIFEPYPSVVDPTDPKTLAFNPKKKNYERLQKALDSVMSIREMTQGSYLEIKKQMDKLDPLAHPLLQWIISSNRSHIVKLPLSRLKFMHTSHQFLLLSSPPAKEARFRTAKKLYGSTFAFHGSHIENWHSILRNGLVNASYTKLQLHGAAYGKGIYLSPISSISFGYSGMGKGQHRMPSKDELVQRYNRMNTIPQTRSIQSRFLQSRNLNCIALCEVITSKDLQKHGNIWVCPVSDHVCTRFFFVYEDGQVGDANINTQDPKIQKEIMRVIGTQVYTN

With `CC(C)(O)c1ccc(-c2nc3c(F)cc(F)cc3c(=O)[nH]2)cc1`, the inhibition entry in the series on Mus musculus [1] and in the series on Mus musculus [14] was “Tde” in each case. Besides, in series [2], the clearance (as a rule, a measure of how efficiently the substance is removed, as volume per time) is 6.83 mL/min/kg. Further, in [3], the “T>fEC50” value was “>= 12 hr”. Also, the solubility thermodynamic at 24 h in series [4] was found to be 31 µg/mL (≈ 98 µM). The half-inhibitory concentration (IC50) (as a rule, the midpoint of a concentration-inhibition curve) in series [5] was above 10 µM; in [6], 0.71 µM; in [9], above 10 µM; in series [12], above 10 µM; in series [15] it was 1 µM. In the series with Mus musculus [7], the inhibition result is “Active”. In addition, the hepatocyte CLint in series [8] was found to be 1.25 µL/min/1e6 cells. Further, in series [10], the fraction unbound (commonly the share of the substance not bound to proteins or other matrix) is 0.086. For the same compound, in series [11], the half-life (in general, the time in which the quantity being followed falls by half) is 1.4 h. Moreover, the microsomal CLint in series [13] was below 10 µL/min/mg. In addition, the Papp A→B (as a rule, how fast a substance crosses the layer from the apical side) at 2 h, 1 µM in series [16] was 40 ×10⁻⁶ cm/s.
